Reference: patent US7341991B2, “Inhibitors of amyloid precursor protein processing” (Posco, priority 2004, dated 2008)
Entries after “also recorded” stand apart in the source; their conditions may differ. Where no end group is shown, it is not given here.

What was measured:
[1] = system: γ-secretase cleavage in KEK293 APP cells; assay: Cell based γ-secretase assay (α-CTF, Western); parameters: species or system human; conditions: 9 hours treatment, α-CTF accumulation
Protocol: In order to test these peptides in the cell for their inhibitory effect on γ-secretase cleavage, a cell based assay was developed. After KEK293 APP cells were cultured in 6 well culture plates with 90% confluency, the cells were treated for 9 hours with N-[N-(3,5-difluorophenacetyl)-L-alanyl]-(S)-phenylglycine t-butyl ester (DAPT) (Dovey H F et al, J. Neurochemistry 2001; 76:173-181), which is a known γ-secretase inhibitor, and complementary peptides. The cells in each well were lysed and these lysates were separated with 15% tris-tricine gel. Western analysis was performed with R1 antibody as primary antibody and goat anti-rabbit-HRP as secondary antibody.

[2] = molecular target: T1, Sub-ST6Gal1 (DYEALTLQAKEFQMPKSQE) (Rattus norvegicus, UniProt P13721); assay: Binding of bio-Sub-ST6Gal1 to immobilized HC peptide; conditions: peptide coupled on microtiter plate
T1 construct: 19 amino acid region (DYEALTL/QAKEFQMPKSQE) that contains the β-cleavage site for investigation was chosen; purchased Peptron, Inc; host or cells: chemical synthesis
Protocol: (§1) Reacti-Bind™ maleic anhydride-activated polystyrene plate (Pierce, IL, USA) was coated with 50 μl of HC peptide (200 μM in distilled water) by chemical coupling for 3 h at room temperature (RT) and washed three times with phosphate buffered saline (PBS) containing 0.05% tween 20 (PBST). The plate was blocked with blocking buffer (0.5% gelatin in PBS) for 1 h at RT. After discarding blocking buffer, biotinylated BACE1 substrates (200 μM) in blocking buffer was applied on the plate and incubated for 2.5 h at RT. Each well was washed three times with PBST. The bound biotinylated BACE1 substrates were detected by incubation with streptavidin-horseradish peroxidase (Str-HRP, 125 mU/ml in blocking buffer) for 2 h at RT. Color reaction was carried out with 50 μl of 3,3′,5,5′-Tetramethylbenzidine Liquid Substrate (Sigma-Aldrich, MO, USA). After stopping the reaction by addition of an equal volume of 1 N HCl, absorbance at 450 nm was read in an automated ELISA reader (EL 312e, Bio-Tek Instruments, VT, USA). All assays were carried out in duplicate.
It was investigated if HC peptide would show specificity for APP in terms of the inhibition of cleavage by BACE1. ST6Gal1 is also cleaved by BACE1. For this experiment, 19 amino acid region (DYEALTL/QAKEFQMPKSQE) that contains the β-cleavage site for investigation was chosen. The 19 amino acid peptide was designated as Sub-ST6Gal1. […]

[3] = system: cleavage of Substrate M by rhBACE (recombinant human β-secretase); assay: Fluorometric (FRET) assay for cleavage of F-Substrate M by β-secretase; assay type: biochemical; conditions: for inhibitory activity group on Substrate M cleavage: tested at various concentrations (FIG. 8)
Description: This assay system utilizes fluorescence resonance energy transfer (FRET) technology. Substrate M was synthesized with two fluorophores, a fluorescent donor and a proprietary quenching acceptor (purchased from a commercial source, R&D Systems). […] Upon cleavage of substrate by β-secretase, the fluorophore is separated from the quenching group, restoring the full fluorescence yield of donor.
Substrate labeled with fluorophores will be called F-Substrate M (R&D Systems). Recombinant human β-secretase will be called rhBACE (recombinant human β-site APP cleavage enzyme) (purchased from R&D systems).
[…] Cleavage by rhBACE was detected by reading emitted fluorescence level.
In this assay system, fluorescence resonance energy transfer (FRET) technology was utilized. […] After pre-incubation, substrate and HC peptide mixture in assay buffer was transferred to FluoroNunc™ 96 well white plate (Nunc, Roskilde, Denmark), and rhBACE1 (70 nM) was added. Time-dependent emission of fluorescence (excitation at 320 nm, emission at 405 nm) was monitored in a Molecular Devices SpectraMax Gemini EM fluorescence reader (CA, USA) for 1 h at 37° C. All assays were carried out in duplicate.

[4] = molecular target: T2, cleavage of Sub-ST6Gal1 by rhBACE1 (Rattus norvegicus, UniProt P13721); assay: HPLC analysis of cleavage of ST6Gal1 substrate by β-secretase; assay type: biochemical, human; conditions: up to 10 inhibitor/substrate ratio; Sub-ST6Gal1 50 μM, 500 nM rhBACE1
T2 construct: Sub-ST6Gal1 (50 μM, DYEALTLQAKEFQMPKSQE) peptide corresponding to the β-cleavage site of ST6Gal1; purchased R&D Systems (enzyme); A&Pep Co., Inc. (non-labelled peptides)
Description: (§2) One of the advantages of the APP inhibitor described in the present invention is that it is a peptide or a mimetic that bind to the β-secretase cleavage site of APP, thus not affecting other β-secretase substrates. To confirm the specificity of the inventive APP inhibitor, two different types of substrates were used, APP Sub M and ST6Gal1. Both substrates are cleaved by β-secretase under normal conditions and the effect of the inventive APP inhibitor on the substrate cleavage was monitored by HPLC (See the schematic diagram in FIG. 16.) To carry out these experiments, the concentration of β-secretase required for cleavage of both substrates was determined as shown in FIG. 17. For substantial cleavage of ST6Gal1 substrate, 420 nM of the enzyme was required. Therefore, 420 nM of β-secretase was used for the following experiment.
Various concentrations of HC peptide were preincubated with either Sub M (50 μM) or Sub-ST6Gal1 (50 μM, DYEALTLQAKEFQMPKSQE) peptide corresponding to the β-cleavage site of ST6Gal1 for 2 h at RT. The mixtures containing Sub M was treated with 50 nM of rhBACE1 and that containing Sub-ST6Gal1 was treated with 500 nM enzyme for 12 h at RT. Roughly 50% of each BACE1 substrate was cleaved in the absence of HC peptide. The cleavage products were separated on a C18 reversed-phase HPLC column as described above.

[5] = system: APP processing in HEK293-APP cells; assay: Cell based assay of APP processing (βCTF, Western blot) in HEK293-APP cells; parameters: species or system human; conditions: βCTF
Protocol: In the neuronal cells of the brain, APP is processed by α-secretase or β-secretase. To investigate the effects of the inhibitors on the cell, a cell based assay system was developed as described in FIG. 10. C-terminal fragment of APP remaining on the cell membrane was detected by Western blot. The resulting C-terminal fragments, αCTF or βCTF are further processed by γ-secretase. However, if the cells are treated with the γ-secretase inhibitor, this processing is blocked. As a result, αCTF or βCTF accumulate in the cell. If β-secretase inhibitor or APP inhibitor is added, this processing is blocked and βCTF disappears.
To test APP inhibitor activities in cells, three complementary peptides, c-Sub M, c-Sub MΔC6, and c-Sub MΔN1C1, which show high absorbance in binding test, were added to whole cell extracts of HEK293-APP cells (Lanes 2, 3, and 4 in FIG. 11). In addition, γ-secretase inhibitor and cholesterol were added to the cells to increase βCTF level. Commercially available peptide-based β-secretase inhibitor was included as control (Lane 6, FIG. 11). To detect the N-terminal fragment of β-amyloid which is a product of APP processing, 6E10 antibody was employed. […] Recently, it has been reported that the commercially available peptide-based inhibitor had to be linked to an oligoarginine transporter peptide to have inhibitory activity against cells. Therefore, mimetic approach is adopted to produce cell permeable analogs. (Chang et al. J. Neurochemistry 2004; 89:1409-1416).
After confirming the ability of the oligo-arginine coupled APP inhibitors to enter the cells, the inhibitors were applied to HEK293-APP cells overexpressing APP to test their inhibitory activities on APP processing. […] This inhibitor started to show significant inhibitory activity beginning from 0.1 μM (lower panel).

[6] = system: cleavage of Sub M by rhBACE1; assay: HPLC analysis of cleavage of Substrate M by β-secretase; assay type: biochemical; conditions: 25-fold amount of inhibitor; 420 nM β-secretase
Protocol: Substrate M (100 μM) was preincubated with complementary peptides ([…]) in assay buffer (100 μl) overnight at RT. rhBACE (140 nM) in assay buffer was added and incubated for 11 hr at RT. Cleavage products of Substrate M by rhBACE were quantitated after separation by C-18 reversed-phase column chromatography (GRACE VyDAC).
as §2
Reversed-phase HPLC was also used to analyze the products of enzyme action in vitro. […] The cleavage products were identified at 215 nm and quantitated by integrating the area under each peak. […]

[7] = system: γ-secretase (membrane fractions of N2a cells); assay: γ-Secretase activity assay on membrane fractions of N2a cells; assay type: biochemical, mouse; conditions: 200 μM peptide, 12.5 μM fluorogenic substrate, 1 hour preincubation
Protocol: Since γ-secretase is composed of four components, cloning of γ-secretase gene is impossible. Therefore, cell extracts were used as γ-secretase source. To obtain the cell extracts, after cell lysis with extraction buffer, the lysate was centrifuged at 10,000×g for 1 minute. Afterward, 2× reaction buffer and fluorogenic substrate was mixed and added to the cell lysate. Then, this mixture was incubated at 37° C. and γ-secretase activity was detected at excitation 335 to 355 nm and emission 495 to 510 nm.
γ-Secretase activity assay was performed on membrane fractions of N2a cells in the presence of several complementary peptides. After 12.5 μM fluorogenic substrate and 200 μM each of the complementary peptides were preincubated for 1 hour, γ-secretase was added to the mixture. In the course of time, the fluorogenic substrate was cleaved by the γ-secretase.

[8] = system: Substrate M (SEVNLDAEFR, β-secretase cleavage site of APPsw); assay: Binding of biotin-labeled Substrate M to immobilized complementary (HC) peptides; conditions: biotin-labeled Sub M, peptide immobilized on plate
Protocol: (§3) Complementary peptides (0.2, 2, 20, and 200 μM) were dissolved in phosphate buffered saline (PBS) (pH 7.4) and fixed to microtiter wells for 5 hr at 37° C. The wells were blocked with blocking buffer (3% BSA/PBS) for 1 hr at 37° C. Either N-terminally biotinylated Substrate W or M (20 μM) in blocking buffer was added and incubated for overnight at 4° C. Streptavidin-horseradish peroxidase in blocking buffer was added to detect resulting bound substrates. The plate was incubated for 2 hr at room temperature (RT), followed by addition of 3, 3′, 5,5′-tetramethyl-benzidine (TMB) as substrate for horseradish peroxidase for color reaction.
as §1

[9] = molecular target: T3, Substrate W (SEVKMDAEFR, β-secretase cleavage site of wild type APP) (Homo sapiens, UniProt P05067); assay: Binding of biotin-labeled Substrate W to immobilized complementary (HC) peptides
T3 construct: purchased Peptron, Inc; host or cells: chemical synthesis
Protocol: as §3
In particular, for Substrate W, complementary peptides (200 μM) dissolved in phosphate buffered saline (PBS) (pH 7.4) were chemically coupled to Reacti-Bind Maleic Anhydride Activated Polystyrene wells (Pierce Biotechnology, Inc.) for overnight at room temperature (RT). Remaining active sites of the plate were inactivated by adding ethanolamine (1 M) for 1 hr at RT. The wells were blocked with blocking buffer (3% BSA/PBS) for 1 hr at RT. N-terminally biotinylated Substrate W (20 μM) in blocking buffer was added and incubated for 3 hr at RT. Streptavidin-horseradish peroxidase in blocking buffer was added to detect resulting bound substrates. The plate was incubated for 2 hr at room temperature (RT), followed by addition of 3,3′,5,5′-tetramethyl-benzidine (TMB) as substrate for horseradish peroxidase for color reaction.
as §1

[10] = molecular target: T4, rhBACE1 (Homo sapiens, UniProt P56817); assay: ELISA binding of rhBACE1 to immobilized c-Sub M
T4 construct: purchased R&D Systems
Description: In one embodiment of the present invention, four HC decapeptides targeted to either wild type APP or APPsw may be designed. […] Therefore, there is possibility that c-Sub M or any compounds derived from c-Sub M may inhibit production of Aβ from wild type APP in cells.

[11] = system: HEK293-APP cells
Protocol: To overcome the problem of APP inhibitor's inability to penetrate across the cell membrane, APP inhibitors were coupled with oligo-arginine (R9 means 9 Arginines), which is known to be a transporter peptide. These coupled peptides were labeled with FITC (Fluorescein isothiocyanate) using a linker AHX (aminohexanoic acid) to investigate whether the inhibitors pass through the cell membrane.
Oligo-arginine coupled APP inhibitors that were labeled with FITC were added to HEK293-APP cells to see whether the peptides pass through the cell membrane.

T4 sequence (P56817 46-501): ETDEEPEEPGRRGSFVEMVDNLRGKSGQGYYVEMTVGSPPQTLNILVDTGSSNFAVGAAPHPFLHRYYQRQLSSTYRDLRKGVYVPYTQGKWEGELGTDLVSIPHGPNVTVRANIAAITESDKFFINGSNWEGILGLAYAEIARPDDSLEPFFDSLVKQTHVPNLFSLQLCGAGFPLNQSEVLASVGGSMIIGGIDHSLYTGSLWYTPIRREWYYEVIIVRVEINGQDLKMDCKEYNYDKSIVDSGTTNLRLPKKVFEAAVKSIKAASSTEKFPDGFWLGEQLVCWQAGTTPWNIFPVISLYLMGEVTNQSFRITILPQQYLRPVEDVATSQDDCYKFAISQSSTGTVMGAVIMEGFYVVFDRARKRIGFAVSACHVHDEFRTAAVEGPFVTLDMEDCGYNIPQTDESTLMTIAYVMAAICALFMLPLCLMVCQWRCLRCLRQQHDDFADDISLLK

## C[C@H](NC(=O)Cc1cc(F)cc(F)c1)C(=O)N[C@H](C(=O)OC(C)(C)C)c1ccccc1 [DAPT, N-[N-(3,5-difluorophenacetyl)-L-alanyl]-(S)-phenylglycine t-butyl ester]
[1]
  inhibition of γ-secretase activity in cells: inhibits γ-secretase activity very effectively

## EFCIQIHF [c-Sub M ΔN1C1]
[2]
  binding of bio-Sub-ST6Gal1: also bound
[3]
  inhibitory activity group on Substrate M cleavage: most active
[4]
  inhibition of cleavage of Sub-ST6Gal1: about 10%
[5]
  inhibitory activity on APP processing: none of the inhibitors tested showed inhibitory activity

## FCIQIHF (FCIQIHF-NH2) [c-Sub M ΔN2C1]
[3]
  inhibitory activity group on Substrate M cleavage: most active
[6]
  Sub M cleavage blocked: about 60%

## PQQYRCHRQR [rCh2 (3′→5′)]
[7]
  inhibitory effect on γ-secretase activity: about 80%

## SEFCIQIHFR-NH2 [c-Sub M, SEFCIQIHFR]
[8]
  binding to Substrate M: binds to Sub M appreciably and bind and binds its substrate Sub M and highest binding
[8]; listed as c-Sub
  binding to Substrate M: bound
[9]; bio-Sub W
  binding to Sub W relative to c-Sub W: 4 fold
[9]; biotin-labeled Sub W, peptide immobilized on plate
  binding to Substrate W: binds the wild type substrate Sub W efficiently
[3]; in vitro, rhBACE1
  inhibition of cleavage of Substrate M by β-secretase: inhibit cleavage
[3]
  inhibitory activity group on Substrate M cleavage: less activity
[5]
  inhibitory activity on APP processing: does not inhibit the processing of APP in cells; also recorded: none of the inhibitors tested showed inhibitory activity
[10]
  binding to rhBACE1: does not bind to rhBACE1
[11]
  entry / transport into the cells: does not enter the cells
